Data reported in PMC4684212, “Toxoplasma gondii Chitinase Induces Macrophage Activation” (PLoS ONE, 2015).

Test system: T1, Tg_chitinase
T1 construct: gene TGME49_286465
Assay: colorimetric p-nitrophenol release at […] nm, non-linear regression
Assay type: biochemical, Toxoplasma gondii
Conditions: substrate 0.01 to 0.1 mM; general assay 0.1 M sodium acetate buffer, 37°C; pH 4.0 and 50°C are the optima listed beside the Km

Molecule CC(=O)N[C@H]1[C@H](Oc2ccc([N+](=O)[O-])cc2)O[C@H](CO)[C@@H](O)[C@@H]1O [pNPGlcNAc] has a Km of 340 µM.
